In ChEMBL document CHEMBL5120867, “Hernandezine Regulates Proliferation and Autophagy-Induced Apoptosis in Melanoma Cells” (J Nat Prod, 2022):
Calls of active or inactive are those of the source. The calls are words filed in the database; no cut-off is given here.

Key:
B16 [1] = experiment: Induction of apoptosis in mouse B16 cells assessed as late apoptotic cells at 7 uM measured after 24 hrs by Annexin-V-FITC/PI-staining based flow cytometry (reference value: 4.4 %); format: functional
B16 [2] = experiment: Induction of cell cycle arrest in mouse B16 cells assessed as accumulation at S phase incubated for 24 hrs by PI staining based flow cytometry analysis (reference value: 42.53 %); format: functional
A-375 [3] = experiment: Upregulation of p27 accumulation in human A-375 cells at 6 to 8 uM measured after 12 to 24 hrs by western blot assay; format: functional, cell-based; conditions: dose 6-8 µM, time 12-24 hrs
B16 [4] = experiment: Induction of apoptosis in mouse B16 cells assessed as chromatin condensation at 5 to 7 uM incubated for 24 hrs by Hoechst 33258 staining based fluorescence microscopy; format: functional, cell-based; conditions: dose 5-7 µM
A-375 [5] = experiment: Cytotoxicity against human A-375 cells assessed as decrease in number of adherent cells at 6 to 8 uM incubated for 24 hrs by […] phase contrast microscope analysis; format: functional, cell-based; conditions: dose 6-8 µM
A-375 [6] = experiment: Induction of cell cycle arrest in human A-375 cells assessed as accumulation at G0/G1 phase incubated for 24 hrs in presence of AG490 by PI staining based flow cytometry analysis (reference value: 56.69 %); format: functional
B16 [7] = experiment: Induction of cell cycle arrest in mouse B16 cells assessed as accumulation at S phase at 7 uM incubated for 24 hrs by PI staining based flow cytometry analysis (reference value: 33.46 %); format: functional
B16 [8] = experiment: Induction of cell cycle arrest in mouse B16 cells assessed as accumulation at G0/G1 phase incubated for 24 hrs by PI staining based flow cytometry analysis (reference value: 56.59 %); format: functional
A549 = experiment: Cytotoxicity against human A549 cells assessed as reduction in cell viability by MTT assay; format: functional, cell-based
A-375 [9] = experiment: Induction of autophagy in human A-375 cells assessed as increase in LC3-II expression at 7 uM incubated for 6 to 24 hrs by […]; format: functional, cell-based; conditions: time 6-24 hrs
A-375 [10] = experiment: Inhibition of colony formation in human A-375 cells assessed as reduction in number of colonies at 6 to 8 uM incubated for 24 hrs followed by replacement with fresh medium and measured after 14 days by crystal violet staining based analysis; format: functional, cell-based; conditions: dose 6-8 µM
NCI-H1299 = experiment: Cytotoxicity against human NCI-H1299 cells assessed as reduction in cell viability by MTT assay; format: functional, cell-based
B16 [11] = experiment: Induction of cell cycle arrest in mouse B16 cells assessed as accumulation at G2/M phase at 6 uM incubated for 24 hrs by PI staining based flow cytometry analysis (reference value: 4.70 %); format: functional
A-375 [12] = experiment: Inhibition of autophagy in human A-375 cells harbouring mCherry-egfp-LC3 assessed as increase in proportion of autolysosome at 7 uM incubated for 8 to 24 hrs by laser scanning confocal microscopic analysis; format: functional, cell-based; conditions: time 8-24 hrs, TDE = time-dependent effect
A-375 [13] = experiment: Induction of autophagy in human A-375 cells assessed as increase in autophagosome with central pulp at 7 uM incubated for 6 to 24 hrs by transmission electron microscopy; format: functional, cell-based; conditions: time 6-24 hrs
B16 [14] = experiment: Induction of cell cycle arrest in mouse B16 cells assessed as accumulation at G0/G1 phase at 7 uM incubated for 24 hrs by PI staining based flow cytometry analysis (reference value: 61.83 %); format: functional
A-375 [15] = experiment: Inhibition of autophagy in human A-375 cells harbouring mCherry-EGFP-LC3 assessed as increase in number of autophagosomes at 7 uM incubated for 8 to 24 hrs by laser scanning confocal microscopic analysis; format: functional, cell-based; conditions: time 8-24 hrs, TDE = time-dependent effect
B16 [16] = experiment: Induction of cell cycle arrest in mouse B16 cells assessed as accumulation at S phase at 6 uM incubated for 24 hrs by PI staining based flow cytometry analysis (reference value: 33.46 %); format: functional
A-375 [17] = experiment: Cytotoxicity against human A-375 cells assessed as reduction in cell viability measured after 24 hrs by MTT assay; format: functional, cell-based; conditions: A-375, 24 h
A-375 [18] = experiment: Cytotoxicity against human A-375 cells assessed as change in cell morphology with loss of […] contacts at 6 to 8 uM incubated for 24 hrs by […] phase contrast microscope analysis; format: functional; conditions: dose 6-8 µM
A-375 [19] = experiment: Induction of apoptosis in human A-375 cells assessed as late apoptotic cells at 7 uM after 24 hrs by Annexin-V-FITC/PI-staining based flow cytometry (reference value: 5.7 %); format: functional
A-375 [20] = experiment: Induction of apoptosis in human A-375 cells assessed as chromatin condensation at 6 to 8 uM incubated for 24 hrs by Hoechst 33258 staining based fluorescence microscopy; format: functional, cell-based; conditions: dose 6-8 µM
A-375 [21] = experiment: Induction of apoptosis in human A-375 cells assessed as early apoptotic cells after 24 hrs by Annexin-V-FITC/PI-staining based flow cytometry (reference value: 3.1 %); format: functional
A-375 [22] = experiment: Induction of autophagy in human A-375 cells assessed as decrease in LC3-I /LC3-II ratio at 7 uM incubated for 6 to 24 hrs by […]; format: functional, cell-based; conditions: time 6-24 hrs
A-375 [23] = experiment: Induction of autophagy in human A-375 cells assessed as increase in phosphorylated AMPK at 7 uM incubated for 6 to 24 hrs by Western blotting analysis; format: functional, cell-based; conditions: time 6-24 hrs
B16 [24] = experiment: Induction of apoptosis in mouse B16 cells assessed as nuclear membrane lysis at 5 to 7 uM incubated for 24 hrs by Hoechst 33258 staining based fluorescence microscopy; format: functional, cell-based; conditions: dose 5-7 µM
B16 [25] = experiment: Inhibition of colony formation in mouse B16 cells assessed as reduction in number of colonies at 5 to 7 uM incubated for 24 hrs followed by replacement with fresh medium and measured after 14 days by crystal violet staining based analysis; format: functional, cell-based; conditions: dose 5-7 µM

## COc1ccc2cc1Oc1ccc(cc1)C[C@H]1c3cc(c(OC)cc3CCN1C)Oc1c(OC)c(OC)c(OC)c3c1[C@H](C2)N(C)CC3 [HERNANDEZINE]
B16 [1]
  Activity: 25.8%
B16 [2]
  Activity: 12.63%
A-375 [3]
  Activity: Active
B16 [4]
  Activity: Active
A-375 [5]
  Activity: Active
A-375 [6]
  Activity: 70.87%
B16 [7]
  Activity: 20.64%
B16 [8]
  Activity: 78.59%
A549
  IC50: 7.59 µM
A-375 [9]
  Activity: Active
A-375 [10]
  inhibition: Active
NCI-H1299
  IC50: 6.74 µM
B16 [11]
  Activity: 3.27%
A-375 [12]
  inhibition: Tde
A-375 [13]
  Activity: Active
B16 [14]
  Activity: 76.38%
A-375 [15]
  inhibition: Tde
B16 [16]
  Activity: 23.84%
A-375 [17]
  IC50: 7.2 µM
A-375 [18]
  Activity: Active
A-375 [19]
  Activity: 47%
A-375 [20]
  Activity: Active
A-375 [21]
  Activity: 19.6%
A-375 [22]
  Activity: Active
A-375 [23]
  Activity: Active
B16 [24]
  Activity: Active
B16 [25]
  inhibition: Active
